Literature values, collected in patent US20230138262A1, “FAST-DISINTEGRATING SOLID HERBICIDE COMPOSITION AND THE USE THEREOF” (Rotam Agrochem International Company Limited, priority 2021, published 2023).

Tests used:
[1] = system: sensitive weeds
[2] = system: corn; settings: in vivo

## Cc1c(C(=O)c2cnn(C)c2O)ccc(S(C)(=O)=O)c1C1=NOCC1 [Topramezone]
[1]; after application
  Time to appearance of albino toxication symptoms in overground part of weeds after application: 2 to 5 days
[1]; depending on weather and environment
  Time from application to death of weeds: 10 to 15 days
[2]
  Safety to corn: safe to corn
